Experimental data reported in patent US7411066B2, “Amino methylated 2-pyridinones” (priority 2004, dated 2008).

Assays:
[1] = test system: NU14 adherence to type 5637 bladder cell line; assay: Infection of bladder cells in vitro (Adherence Assay); format: cell-based, Escherichia coli; conditions: 5637 bladder cells; untreated NU14 = 100%
Protocol: Infection of Bladder Cells in vitro (Adherence Assay)
The infection of bladder cells in vitro was carried out according to the following steps:
Preparation of Tissue Culture Cells (Type 5637 Bladder Cell Line)
1. Place 1 ml of RPMI/10% FBS containing 1:20 dilution of 5637 cells in each well of 24 well plate.
2. Place in incubator for 3 days or until confluent growth.
Preparation of Bacterial Cells (Strains NU14 and UTI89)
1. Inoculate 20 ml of LB containing NU14 with a single colony or a loop from a frozen stock to a 250 ml flask.
2. Static growth at 37° C. for 2 days to induce pili production.
3. Harvest cells at 4,000×g for 10 minutes.
4. Resuspend in 5 ml of PBS ([…])
Infection of Tissue Culture Cells In Vitro
1. Wash each well with PBS MgCl2/CaCl2.
2. Place 1 ml of fresh medium to each well.
3. Add 10 μl of bacterial cells to each well. Triplicate plates.
4. Spin plate at 1800 rpm for 5 minutes.
5. View under 40× to see−2-3 bacterial cells/epithelial cell.
6. Place in lower incubator for 2 hours.
7. Wash two plates 5× with PBS MgCl2/CaCl2. Lyse by addition of 0.1% sarkosyl/0.5% glucose/PBS—MgCl2/CaCl2 one set and dilute for CFU.

[2] = test system: NU14 biofilm; assay: Biofilm Assay (crystal violet stain on PVC plates); format: cell-based, Escherichia coli; conditions: 48 hrs at room temperature, absorbance at 600 nm; untreated NU14 = 100%
Protocol: The Biofilm Assay was carried out according to the following steps:
Day 1 Set Up Biofilm Growth on PVC Plates
1. Sterilize PVC plates (96-well round bottom polyvinyl chloride [PVC] plates; Falcon #353911) and PVC Lids (Falcon #353913) in tissue culture hood under UV irradiation for at least 30 min.
2. Make dilution (from overnight cultures) or suspension (from either colonies on plates or freezer stocks) of bacterial cultures. Make enough of bacterial cultures for the number of wells needed. Bacterial culture need to be very dilute: at least 1:1,000 fold dilution from overnight cultures or a small quantity from colonies or freezer stocks.
3. Add 100 μl of bacterial cultures into each well. Make sure to have 1 well with LB alone as negative control and 1 well without anything for blank.
4. Cover plates with lids and leave plates undisturbed at room temperature for 48 hrs.
Day 3 Assay Biofilm With Crystal Violet Stain
5. Prepare enough PBS (w/out Mg^2+ Ca^2+) to wash biofilm plates (need at least 3 L PBS for 1-5 plates). Could use mpH2O instead of PBS.
6. Get a clean 4 L plastic beaker. Cover the bench with a large piece of absorbent pad.
7. Fill 3 containers (large enough to dip the 96-well plates in) with PBS.
8. Start washing a biofilm plate by dumping out bacterial cultures into the beaker. (Treat contents in this beaker as biohazard. Need to bleach the content before emptying it into drain.)
9. Fill the biofilm plate in the first PBS container and shake off PBS in the beaker. Rinse the biofilm 1× in the first PBS container. Put the biofilm plate into the second PBS container and rinse 2×.
10. Put the biofilm plate in the third PBS container and let sit.
11. Proceed to wash a second biofilm plate if there are any.
12. While the second biofilm plate is in the second container, rinse the first biofilm plate 1× and remove it from PBS. Decant residual PBS by banging the plate on paper towels on the bench. Leave the plate up-side-down on a clean paper towel and let the plate dry.
13. Put the second biofilm plate into the third PBS container and let sit.
14. Proceed to wash a third biofilm plate if applicable.
15. Repeat steps 8-14 until all plates are washed.
16. Let washed biofilm plates air-dry for at least 15 min.
Crystal Violet Stain and Wash
17. Fill 4 containers (large enough to dip the 96-well plates in) with PBS.
18. With a multi-channel pipet, add 125 μl of 1% Crystal Violet (in mpH2O). Stain biofilm plates sequentially for 10 min. (not more than 15 min). Give at least 2 minute break in-between staining each plates. If more than 4 biofilm plates, might want to consider staining and washing them in batches.
19. Start washing biofilm plates as above.
20. Let the washed plates air-dry for 10 minor so. […]
24. Proceed immediately to the Plate Reader and read the absorbance of the plate at 600 nm. […]

Structure (SMILES) | Adherence Assay % of Wild Type [1] [%] | Bioflim Assay % of Wild Type [2] [%]
O=C([O-])[C@@H]1CSc2c(C3CC3)c(Cc3cccc4ccccc34)c(CN3CCOCC3)c(=O)n21.[Li+] | 12.2 | 8.3
O=C([O-])[C@@H]1CSc2c(-c3ccccc3)c(Cc3cccc4ccccc34)c(CN3CCOCC3)c(=O)n21.[Li+] | 14.3 | 6.8
CN(C)Cc1c(Cc2cccc3ccccc23)c(-c2ccccc2)c2n(c1=O)[C@H](C(=O)[O-])CS2.[Li+] | 21.8 | 6.9
Cc1c(-c2ccccc2)c2n(c(=O)c1CN(C)C)[C@H](C(=O)[O-])CS2.[Li+] | 97.6 | 73.1
